Target: SARS2 coronavirus 3CL protease (Severe acute respiratory syndrome coronavirus 2, UniProt P0DTD1)
Experiment: biochemical
Conditions: 5 nM enzyme, 30 min pre-incubation with compound, 15 μM peptide substrate, 4 h at room temperature; read-out: FRET Potency (nM); IC50 values in the SARS2 3CLPro FRET assay

Row | Structure (SMILES) | IC50
1 | O=C(Nc1ccc(Cl)cc1C(=O)N[C@@H](C[C@@H]1CCNC1=O)C(=O)C(=O)NC1CC1)OCC1CC1 [Example 162, cyclopropylmethyl N-[4-chloro-2-[[(1S)-3-(cyclopropylamino)-2,3-dioxo-1-[[(3S)-2-oxopyrrolidin-3-yl]methyl]propyl]carbamoyl]phenyl]carbamate] | 7.5 nM
2 | C[C@@H]1C[C@@H](C[C@H](NC(=O)c2cc(Cl)ccc2NC(=O)c2ccnc(C(F)(F)F)c2)C(=O)C(N)=O)C(=O)N1 [Example 208, N-[2-[[(1S)-3-amino-1-[[(3S,5R)-5-methyl-2-oxo-pyrrolidin-3-yl]methyl]-2,3-dioxo-propyl]carbamoyl]-4-chloro-phenyl]-2-(trifluoromethyl)pyridine-4-carboxamide] | 6.9 nM
3 | O=C(NC1CC1)C(=O)[C@H](C[C@@H]1CCNC1=O)NC(=O)c1cc(Cl)c(F)cc1NC(=O)c1cncc(C(F)(F)F)c1 [Example 79] | 11.3 nM
4 | CNC(=O)C(=O)[C@H](C[C@@H]1C[C@@H](C)NC1=O)NC(=O)c1cc(Cl)ccc1NC(=O)OC1CCC(F)(F)C1 (stereo partly drawn) [Example 201, (3,3-difluorocyclopentyl) N-[4-chloro-2-[(1S)-3-(methylamino)-1-[[(3S,5R)-5-methyl-2-oxo-pyrrolidin-3-yl]methyl]-2,3-dioxo-propyl]carbamoyl]phenyl] carbamate] | 7 nM
5 | CNC(=O)C(=O)[C@H](C[C@@H]1CCNC1=O)NC(=O)c1cc(Cl)ccc1NC(=O)OC(C)C [Example 128, isopropyl N-[4-chloro-2-[[(1S)-3-(methylamino)-2,3-dioxo-1-[[(3S)-2-oxopyrrolidin-3-yl]methyl]propyl]carbamoyl]phenyl]carbamate] | 7.2 nM
6 | C[C@@H]1C[C@@H](C[C@H](NC(=O)c2cc(Cl)ccc2NC(=O)[C@H]2CC2(F)F)C(=O)C(=O)NC2CC2)C(=O)N1 [Example 8, 5-chloro-N—((S)-4-(cyclopropylamino)-1-((3S,5R)-5-methyl-2-oxopyrrolidin-3-yl)-3,4-dioxobutan-2-yl)-2-((R)-2,2-difluorocyclopropane-1-carboxamido)benzamide] | 10.1 nM
7 | C[C@@H]1C[C@@H](C[C@H](NC(=O)c2cc(Cl)ccc2NC(=O)c2cc(C(F)(F)F)ccn2)C(=O)C(=O)NC2CC2)C(=O)N1 [Example 86, N-[4-chloro-2-[[(1S)-3-(cyclopropylamino)-1-[[(3S,5R)-5-methyl-2-oxo-pyrrolidin-3-yl]methyl]-2,3-dioxo-propyl]carbamoyl]phenyl]-4-(trifluoromethyl)pyridine-2-carboxamide] | 6.8 nM
8 | CNC(=O)C(=O)[C@H](C[C@@H]1C[C@@H](C)NC1=O)NC(=O)c1cc(F)c(Cl)cc1NC(=O)OC [Example 134, methyl N-[5-chloro-4-fluoro-2-[(1S)-3-(methylamino)-1-[[(3S,5R)-5-methyl-2-oxo-pyrrolidin-3-yl]methyl]-2,3-dioxo-propyl]carbamoyl]phenyl] carbamate] | 28.2 nM
9 | CNC(=O)C(=O)[C@H](C[C@@H]1C[C@@H](C)NC1=O)NC(=O)c1cc(Cl)ccc1NC(=O)C1(CC(F)(F)F)CC1 [Example 202, 5-chloro-N-[(1S)-3-(methylamino)-1-[[(3S,5R)-5-methyl-2-oxo-pyrrolidin-3-yl]methyl]-2,3-dioxo-propyl]-2-[[1-(2,2,2-trifluoroethyl)cyclopropane-carbonyl]amino]benzamide] | 11.9 nM
10 | C[C@@H]1C[C@@H](C[C@H](NC(=O)c2cc(Cl)ccc2NC(=O)c2ccnc(C(F)(F)F)c2)C(=O)C(=O)NC2CC2)C(=O)N1 [Example 2, N-(4-chloro-2-(((S)-4-(cyclopropylamino)-1-((3S,5R)-5-methyl-2-oxopyrrolidin-3-yl)-3,4-dioxobutan-2-yl)carbamoyl)phenyl)-2-(trifluoromethyl)isonicotinamide] | 5.6 nM
11 | CNC(=O)C(=O)[C@H](C[C@@H]1C[C@@H](C)NC1=O)NC(=O)c1cc(Cl)ccc1NC(=O)CCC(F)(F)F [Example 178, 5-chloro-N-[(1S)-3-(methylamino)-1-[[(3S,5R)-5-methyl-2-oxo-pyrrolidin-3-yl]methyl]-2,3-dioxo-propyl]-2-(4,4,4-trifluorobutanoylamino) benzamide] | 7 nM

Source: patent US20240228535A1 (priority 2022, published 2024)
